For the experiment, the target named is T1, Endothelial lipase (EL) (Homo sapiens, UniProt Q9Y5X9).
T1 construct: HT-1080 cells, which were transformed by RAGE technology (Athersys) to overexpress endogenous EL; endogenous in cells; conditioned medium used as the enzyme source
T1 sequence (Q9Y5X9 21-500): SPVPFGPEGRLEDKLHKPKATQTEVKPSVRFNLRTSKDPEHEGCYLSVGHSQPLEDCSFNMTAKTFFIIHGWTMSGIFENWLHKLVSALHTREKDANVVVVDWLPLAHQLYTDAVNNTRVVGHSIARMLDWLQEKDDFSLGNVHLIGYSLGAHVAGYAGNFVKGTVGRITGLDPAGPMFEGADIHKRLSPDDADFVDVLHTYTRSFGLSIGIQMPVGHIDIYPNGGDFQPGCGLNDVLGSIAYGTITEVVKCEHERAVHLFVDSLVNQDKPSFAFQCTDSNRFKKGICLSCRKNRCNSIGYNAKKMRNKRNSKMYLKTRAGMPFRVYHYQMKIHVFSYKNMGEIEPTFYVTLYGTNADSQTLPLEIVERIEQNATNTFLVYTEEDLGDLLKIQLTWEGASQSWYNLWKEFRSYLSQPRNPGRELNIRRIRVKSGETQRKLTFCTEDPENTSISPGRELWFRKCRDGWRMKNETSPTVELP
Briefly: Endothelial lipase (EL) enzymatic assay with fluorescent substrate A10070 in DMPG vesicles. Type of experiment: biochemical. A digest of the protocol:
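The enzyme source was conditioned medium from HT-1080 cells engineered to overexpress endogenous EL. It was preincubated with compound for 20 min at 37 °C in 50 mM HEPES pH 8.0, 50 mM NaCl, 1 mM CaCl2. Reactions started with DMPG vesicles carrying FRET substrate A10070 (mole fraction 0.05). The rate was taken from the linear slope of fluorescence (ex 488/em 530 nm) over 10 min.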

Where [1] appears, read: range observed in the EL assay, read-out: EL IC50 values.
The mark [2] stands for this setting: conditioned media from HT-1080 cells overexpressing endogenous EL, 20 min preincubation at 37° C., read-out: EL IC50.

Molecules are shown by their SMILES. Where two headings read alike, the source gives them in different places.

26 molecules from US9199946B2, “Pyrimidinone carboxamide inhibitors of endothelial lipase” (BRISTOL-MYERS SQUIBB COMPANY, priority 2012, dated 2015) can be followed below.

As a reminder, the IC50 is the midpoint of a concentration-inhibition curve. Consider `COc1ccc2c(c1)C(NC(=O)c1[nH]c(=O)[nH]c(=O)c1N)CCC2` (stereo not drawn) [Example 39, 5-amino-N-(7-methoxy-1,2,3,4-tetrahydronaphthalen-1-yl)-2,6-dioxo-1,2,3,6-tetrahydropyrimidine-4-carboxamide], for which, under setting [1], the IC50 was at most 10 µM.

In the case of `O=C(Cn1c(=O)[nH]c(C(=O)N[C@H]2CC[C@@H](c3ccccc3)CC2)c(O)c1=O)N[C@H]1CC[C@@H](c2ccccc2)CC1` [Example 268, 5-Hydroxy-2,6-dioxo-1-(2-oxo-2-((cis-4-phenylcyclohexyl)amino)ethyl)-N-(cis-4-phenylcyclohexyl)-1,2,3,6-tetrahydropyrimidine-4-carboxamide], under setting [1], the 50% inhibitory concentration (IC50) is at most 10 µM.

On to `O=C(Nc1ccc2c(c1)CCC[C@H]2NC(=O)c1[nH]c(=O)[nH]c(=O)c1O)c1ccccc1` [Example 288, (R)-N-(6-benzamido-1,2,3,4-tetrahydronaphthalen-1-yl)-5-hydroxy-2,6-dioxo-1,2,3,6-tetrahydropyrimidine-4-carboxamide], for which the concentration for half-maximal inhibition (IC50) under setting [1] was at most 10 µM.

Regarding `O=C(N[C@H]1CC[C@@H](NC(=O)c2[nH]c(=O)[nH]c(=O)c2O)CC1)OCc1ccccc1` [Example 281, benzyl cis-4-(5-hydroxy-2,6-dioxo-1,2,3,6-tetrahydropyrimidine-4-carboxamido)cyclohexylcarbamate], the IC50 under setting [2] was found to be 0.875 µM and the half-inhibitory concentration (IC50) under setting [1] is at most 10 µM.

Turning to `COc1ccc2c(c1)C(NC(=O)c1[nH]c(=O)[nH]c(=O)c1N)CCC2` (single isomer, unassigned; enantiomer b) [Example 200, 5-amino-N-(7-methoxy-1,2,3,4-tetrahydronaphthalen-1-yl)-2,6-dioxo 1,2,3,6-tetrahydropyrimidine-4-carboxamide (Enantiomer B)], under setting [1], the IC50 is at most 10 µM.

In the case of `Nc1c(C(=O)N[C@@H]2CC[C@@H](C(=O)Nc3cnn(Cc4ccccc4)c3)C2)[nH]c(=O)[nH]c1=O` [Example 149, 5-amino-N-((1R,3R)-3-(1-benzyl-1H-pyrazol-4-ylcarbamoyl)cyclopentyl)-2,6-dioxo-1,2,3,6-tetrahydropyrimidine-4-carboxamide], the half-inhibitory concentration (IC50) under setting [1] was at most 10 µM.

In the case of `O=C(N[C@@H]1CCCc2c1cccc2C(F)(F)F)c1[nH]c(=O)[nH]c(=O)c1O` [Example 254, (R)-5-hydroxy-2,6-dioxo-N-(5-(trifluoromethyl)-1,2,3,4-tetrahydronaphthalen-1-yl)-1,2,3,6-tetrahydropyrimidine-4-carboxamide], the IC50 under setting [1] is at most 10 µM.

Regarding `Cn1c(=O)[nH]c(C(=O)N[C@H]2CC[C@@H](c3ccccc3)CC2)c(O)c1=O` [Example 242, 5-hydroxy-1-methyl-2,6-dioxo-N-(cis-4-phenylcyclohexyl)-1,2,3,6-tetrahydropyrimidine-4-carboxamide], under setting [1], the IC50 was at most 10 µM.

Take `Nc1c(C(=O)N[C@@H]2CC[C@H](c3ccc(-c4cnn(CCN5CCOCC5)c4)cc3)C2)[nH]c(=O)[nH]c1=O` [Example 164, 5-amino-N-((1R,3S)-3-(4-(1-(2-morpholinoethyl)-1H-pyrazol-4-yl)phenyl)cyclopentyl)-2,6-dioxo-1,2,3,6-tetrahydropyrimidine-4-carboxamide]: the IC50 is 0.788 µM under setting [2] and at most 10 µM under setting [1].

For `Nc1c(C(=O)N[C@H]2CC[C@@H](c3ccc(-c4ccc(Cl)cc4)cc3)C2)[nH]c(=O)[nH]c1=O` [Example 170, 5-amino-N-((1S,3R)-3-(4′-chlorobiphenyl-4-yl)cyclopentyl)-2,6-dioxo-1,2,3,6-tetrahydropyrimidine-4 carboxamide], under setting [1], the half-maximal inhibitory concentration (IC50) was at most 10 µM.

For `Nc1c(C(=O)NC2CCC(c3cccc(OCc4ccccc4)c3)C2)[nH]c(=O)[nH]c1=O` (stereo not drawn) [Example 104, 5-amino-N-(3-(3-(benzyloxy)phenyl)cyclopentyl)-2,6-dioxo-1,2,3,6-tetrahydropyrimidine-4-carboxamide], under setting [1], the 50% inhibitory concentration (IC50) is at most 10 µM.

`Cc1ccc(-c2ccc([C@@H]3CC[C@H](NC(=O)c4[nH]c(=O)[nH]c(=O)c4N)C3)cc2)cc1` [Example 169, 5-amino-N-((1S,3R)-3-(4′-methylbiphenyl-4-yl)cyclopentyl)-2,6-dioxo-1,2,3,6-tetrahydropyrimidine-4-carboxamide]: the 50% inhibitory concentration (IC50) under setting [1] is at most 10 µM.

As for `CCOc1cccc(C(=O)N[C@H]2CC[C@@H](NC(=O)c3[nH]c(=O)[nH]c(=O)c3N)CC2)c1` [Example 121, 5-amino-N-(cis-4-(3-ethoxybenzamido)cyclohexyl)-2,6-dioxo-1,2,3,6-tetrahydropyrimidine-4-carboxamide], the IC50 under setting [1] was at most 10 µM.

In the case of `Nc1c(C(=O)NC2CCN(C(=O)Nc3ccc(C(F)(F)F)cc3)c3ccccc32)[nH]c(=O)[nH]c1=O` (stereo not drawn) [Example 26, 4-(5-amino-2,6-dioxo-1,2,3,6-tetrahydropyrimidine-4-carboxamido)-N-(4-(trifluoromethyl)phenyl)-3,4-dihydroquinoline-1(2H)-carboxamide], the IC50 is 9.86 µM under setting [2] and at most 10 µM under setting [1].

As for `Nc1c(C(=O)NC2CCCc3ccsc32)[nH]c(=O)[nH]c1=O` (stereo not drawn) [Example 46, 5-amino-2,6-dioxo-N-(4,5,6,7-tetrahydrobenzo[b]thiophen-7-yl)-1,2,3,6-tetrahydropyrimidine-4-carboxamide], the IC50 is, setting by setting: under setting [2], 3.32 µM; under setting [1], at most 10 µM.

As for `O=C(N[C@H]1CC[C@H](C(=O)Nc2ccccc2)C1)c1[nH]c(=O)[nH]c(=O)c1O` [Example 290, 5-hydroxy-2,6-dioxo-N-((1S,3S)-3-(phenylcarbamoyl)cyclopentyl)-1,2,3,6-tetrahydropyrimidine-4-carboxamide], the 50% inhibitory concentration (IC50) under setting [1] was at most 10 µM.

For the molecule `Nc1c(C(=O)N[C@@H]2CCc3ccc(OCc4ccccc4)cc32)[nH]c(=O)[nH]c1=O` [Example 91, (R)-5-amino-N-(6-(benzyloxy)-2,3-dihydro-1H-inden-1-yl)-2,6-dioxo-1,2,3,6-tetrahydropyrimidine-4-carboxamide], the IC50 under setting [1] is at most 10 µM.

For `O=C(N[C@H]1CC[C@@H](c2ccccc2)CC1)c1[nH]c(=O)[nH]c(=O)c1NCCc1ccc(Cl)cc1` [Example 218, 5-(4-chlorophenethylamino)-2,6-dioxo-N-(cis-4-phenylcyclohexyl)-1,2,3,6-tetrahydropyrimidine-4-carboxamide], the concentration for half-maximal inhibition (IC50) is 0.296 µM under setting [2] and at most 10 µM under setting [1].

In the case of `O=C(N[C@H]1CC[C@@H](c2ccccc2)CC1)c1[nH]c(=O)[nH]c(=O)c1N[C@@H]1C[C@H]2CC[C@@H]1C2` [Example 231, 5-((1R,2R,4S)-bicyclo[2.2.1]heptan-2-ylamino)-2,6-dioxo-N-(cis-4-phenylcyclohexyl)-1,2,3,6-tetrahydropyrimidine-4-carboxamide], the IC50 was 3.84 µM under setting [2] and at most 10 µM under setting [1].

As for `NC(=O)c1ccccc1-c1ccc([C@@H]2CC[C@H](NC(=O)c3[nH]c(=O)[nH]c(=O)c3N)C2)cc1` [Example 180, 5-amino-N-((1S,3R)-3-(2′-carbamoyl-[1,1′-biphenyl]-4-yl)cyclopentyl)-2,6-dioxo-1,2,3,6-tetrahydropyrimidine-4-carboxamide], the IC50 runs as follows: under setting [2], 0.141 µM; under setting [1], at most 10 µM.

With `Nc1c(C(=O)N[C@H]2CCCc3c(OCc4ccccc4F)cccc32)[nH]c(=O)[nH]c1=O` [Example 97, (S)-5-amino-N-(5-(2-fluorobenzyloxy)-1,2,3,4-tetrahydronaphthalen-1-yl)-2,6-dioxo-1,2,3,6-tetrahydropyrimidine-4-carboxamide], the IC50 under setting [1] is at most 10 µM.

In the case of `O=C(N[C@H]1CC[C@@H](c2ccccc2)CC1)c1[nH]c(=O)[nH]c(=O)c1NCCN1CCCCC1` [Example 237, 2,6-dioxo-N-((1s,4s)-4-phenylcyclohexyl)-5-(2-(piperidin-1-yl)ethylamino)-1,2,3,6-tetrahydropyrimidine-4-carboxamide], the concentration for half-maximal inhibition (IC50) under setting [1] was at most 10 µM.

`Nc1c(C(=O)NC2CCCCC2C2CCCCC2)[nH]c(=O)[nH]c1=O` (stereo not drawn) [Example 59, 5-amino-N-(bi(cyclohexan)-2-yl)-2,6-dioxo-1,2,3,6-tetrahydropyrimidine-4-carboxamide]: the IC50 under setting [1] is at most 10 µM.

Consider `O=C(N[C@H]1CC[C@@H](c2ccccc2)CC1)c1[nH]c(=O)[nH]c(=O)c1NCc1ccccc1C(F)(F)F` [Example 215, 2,6-dioxo-N-(cis-4-phenylcyclohexyl)-5-(2-(trifluoromethyl)benzylamino)-1,2,3,6-tetrahydropyrimidine-4-carboxamide], for which the IC50 under setting [1] was at most 10 µM.

`Nc1c(C(=O)N[C@@H]2CC[C@@H](c3ccccc3)C2)[nH]c(=O)[nH]c1=O` [Example 77, 5-amino-2,6-dioxo-N-((1R,3R)-3-phenylcyclopentyl)-1,2,3,6-tetrahydropyrimidine-4-carboxamide]: the IC50 under setting [1] is at most 10 µM.

For the molecule `O=C(N[C@@H]1CCc2ccc(C(F)(F)F)cc21)c1[nH]c(=O)[nH]c(=O)c1O` [Example 248, (R)-5-hydroxy-2,6-dioxo-N-(6-(trifluoromethyl)-2,3-dihydro-1H-inden-1-yl)-1,2,3,6-tetrahydropyrimidine-4-carboxamide], under setting [1], the IC50 is at most 10 µM.
